Experimental findings from patent US11149049B2, “Substituted nucleosides, nucleotides and analogs thereof” (JANSSEN BIOPHARMA, INC., priority 2017, dated 2021) are described below.

Where two headings read alike, the source gives them in different places.

Series [1] deals with Dengue virus type 2 NG-C or Dengue virus type 4 H241. Nature of the series: Dengue antiviral assay (DENV). In kind it is cell-based. Particulars: Huh-7.5 cells, five to six days, CellTiter-Glo. How it is done: The Dengue virus type 2 strain New Guniea C (NG-C) and the Dengue virus type 4 strain H241 were purchased from ATCC (Manassas, Va.; item numbers VR-1584 and VR-1490, respectively). 24 hours prior to dosing, Huh-7.5 cells were plated in 96 well plates at a density of 1.5×10^5/ml in DMEM medium supplemented with 10% fetal bovine serum, 1% HEPES buffer, 1% Penicillin/Streptomycin and 1% non-essential amino acids (all Mediatech, Manassas, Va.). At the day of infection, serially diluted compounds were added to cells and incubated for 4 hours. After the end of the 4 hour pre-incubation period, cells were infected with either Dengue virus type 2 NG-C or Dengue virus type 4 H241. The virus inoculum was selected to cause 80-90% cytopathic effect in five to six days. Infected cells were incubated for five (NG-C) to six (H241) days at 37° C., 5% CO2. To develop the assay, 100 μl media was replaced with 100 μl CellTiter-Glo® reagent (Promega, Madison, Wis.), and incubated for 10 min at room temperature. Luminescence was measured on a Victor X3 multi-label plate reader. Potential compound cytotoxicity was determined using uninfected parallel cultures.
For orientation: In ATP-based viability assays light output follows the ATP content of the culture.

Series [2] is described as follows: Cytotoxicity in the DENV assay, uninfected parallel cultures. Particulars: human, DENV CC50, uninfected Huh-7.5 parallel cultures.
In a further series the test system is RSV replicon. Nature of the series: microbe, parasite or virus in culture. The format is cell-based.
A short description of series [3]: Cytotoxicity in the coronavirus assay, uninfected parallel cultures. The format is cell-based. Particulars: human, read-out: OC43CoV CC50. As for the experimental part:
(§1) The human β-coronavirus strain OC43 was purchased from ATCC (Manassas, Va.; item numbers VR-1558 and VR-740, respectively). 24 hours prior to dosing, HeLa human cervix epithelial cells (ATCC, CCL-2) or MRC-5 human lung fibroblast (ATCC, CCL-171) were plated in 96 well plates at a density of 1.5×10^5/ml in DMEM medium supplemented with 10% fetal bovine serum, 1% HEPES buffer, 1% Penicillin/Streptomycin and 1% non-essential amino acids (all Mediatech, Manassas, Va.). At the day of infection, serially diluted compounds were added to cells and incubated for 4 hours. After the end of the 4 hour pre-incubation period, cells were infected with either coronavirus strain OC43 or 229E. The virus inoculum was selected to cause 80-90% cytopathic effect. Infected cells were incubated for five days at 37° C., 5% CO2. To develop the assay, 100 μl media was replaced with 100 μl CellTiter-Glo® reagent (Promega, Madison, Wis.), and incubated for 10 min at room temperature. Luminescence was measured on a Victor X3 multi-label plate reader. Potential compound cytotoxicity was determined using uninfected parallel cultures.

Series [4] is described as follows: Cell viability (CC50) in the RSV replicon assay. Particulars: human, HeLa-derived cells containing the stable RSV replicon, CellTiter-Glo. (In general: A replicon is a self-replicating genome or part of one, used to study replication in cells.)
Series [5] relates to human β-coronavirus strain OC43. The series can be described thus: Coronavirus antiviral assay (OC43). The format is cell-based. Particulars: Betacoronavirus 1, OC43, 120 h; HeLa or MRC-5 cells, five days, CellTiter-Glo; read-out: OC43CoV EC50. As for the experimental part: as §1
A further series concerns Ebola minigenome. Nature of the series: microbe, parasite or virus in culture. In kind it is cell-based.
A short description of a further series: in vitro. Particulars: human.
Series [6] can be described thus: Toxicity (CC50) in the HRV1B assay. Particulars: human.
For the next series, the system named is Human rhinovirus 1B. The series can be described thus: Rhinovirus antiviral assay (HRV1B). Particulars: Rhinovirus A, 96 h, read-out: HRV 1B EC50, HeLa-OHIO cells, 4 d, CellTiter-Glo. The format is cell-based.
The target in series [7] is human rhinovirus 16 RNA polymerase (Human rhinovirus 16 (HRV-16), UniProt Q82122). In kind it is biochemical. Particulars: recombinant enzyme, tritiated NMP incorporation, 2.5 hours at 30° C.; read-out: HRV16pol IC50.
Series [8] has as its target hepatitis C virus RNA polymerase (Hepatitis C virus genotype 1a (isolate H77) (HCV), UniProt P27958). The series can be described thus: HCV polymerase assay (HCVpol). The format is biochemical. Particulars: recombinant enzyme, tritiated NMP incorporation, 2.5 hours at 30° C. How it is done:
The enzyme activity of hepatitis C virus RNA polymerase (HCVpol) and human rhinovirus 16 RNA polymerase (HRV16pol) is measured as an incorporation of tritiated NMP into acid-insoluble RNA products. HCVpol and HRV16pol assay reactions contain 30-100 nM recombinant enzyme, 50-500 nM heteropolymeric RNA, 0.5 μCi tritiated NTP, 0.1-1 μM of other NTPs, in a standard reaction buffer containing MgCl2. Enzymatic reactions are incubated for 2.5 hours at 30° C., in the presence of increasing concentration of inhibitor. At the end of the reaction, the total RNA is precipitated with 10% TCA, and acid-insoluble RNA products are filtered on a size exclusion 96-well plate. After washing of the plate, scintillation liquid is added and radiolabeled RNA products are detected according to standard procedures with a Trilux Microbeta scintillation counter. The compound concentration at which the enzyme-catalyzed rate is reduced by 50% (IC50) is calculated by fitting the data to a non-linear regression (sigmoidal).

Series [9] has as its target dengue virus NS5 polymerase domain (Dengue virus type 2, UniProt P14340). Nature of the series: Dengue polymerase assay (DENVpol). Particulars: 100 nM recombinant enzyme, 3 hours at 30° C., mean of several independent experiments. As for the experimental part:
The enzyme activity of dengue virus NS5 polymerase domain (DENVpol, serotype 2, New Guinea C strain) was measured as an incorporation of tritiated NMP into acid-insoluble RNA products. DENVpol assay reactions contained 100 nM recombinant enzyme, 50 nM heteropolymeric RNA, about 0.5 μCi tritiated NTP, 0.33 μM of competing cold NTP, 40 mM HEPES (pH 7.5), 3 mM dithiothreitol, and 2 mM MgCl2. Standard reactions were incubated for 3 hours at 30° C., in the presence of increasing concentration of inhibitor. At the end of the reaction, RNA was precipitated with 10% TCA, and acid-insoluble RNA products were filtered on a size exclusion 96-well plate. After washing of the plate, scintillation liquid was added and radiolabeled RNA products were detected according to standard procedures with a Trilux Topcount scintillation counter. The compound concentration at which the enzyme-catalyzed rate was reduced by 50% (IC50) was calculated by fitting the data to a non-linear regression (sigmoidal).

[10] abbreviates: human respiratory syncytial virus, 168 h, read-out: RSV EC50, HeLa-derived RSV replicon cells, 7 days, luciferase.
Where [11] appears, read: Zaire ebolavirus, HEp-2, 48 h, read-out: EBOV EC50, HEp-2 cells, Ebola minigenome, 48 hours.

Chain of human rhinovirus 16 RNA polymerase (Q82122 1694-2153 limits assumed): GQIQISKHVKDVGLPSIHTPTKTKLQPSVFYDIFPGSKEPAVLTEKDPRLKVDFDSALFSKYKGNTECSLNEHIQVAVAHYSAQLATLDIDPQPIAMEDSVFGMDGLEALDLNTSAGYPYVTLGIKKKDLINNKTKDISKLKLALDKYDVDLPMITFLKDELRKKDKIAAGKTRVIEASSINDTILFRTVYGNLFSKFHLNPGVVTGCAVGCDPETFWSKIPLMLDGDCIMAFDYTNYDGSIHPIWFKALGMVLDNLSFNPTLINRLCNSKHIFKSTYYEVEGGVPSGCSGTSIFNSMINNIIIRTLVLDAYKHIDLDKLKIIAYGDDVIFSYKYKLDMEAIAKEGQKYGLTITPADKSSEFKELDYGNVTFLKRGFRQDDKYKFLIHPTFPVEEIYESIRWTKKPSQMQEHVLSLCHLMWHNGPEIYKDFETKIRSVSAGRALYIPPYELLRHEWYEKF
Chain of hepatitis C virus RNA polymerase (P27958 2421-3011 limits assumed): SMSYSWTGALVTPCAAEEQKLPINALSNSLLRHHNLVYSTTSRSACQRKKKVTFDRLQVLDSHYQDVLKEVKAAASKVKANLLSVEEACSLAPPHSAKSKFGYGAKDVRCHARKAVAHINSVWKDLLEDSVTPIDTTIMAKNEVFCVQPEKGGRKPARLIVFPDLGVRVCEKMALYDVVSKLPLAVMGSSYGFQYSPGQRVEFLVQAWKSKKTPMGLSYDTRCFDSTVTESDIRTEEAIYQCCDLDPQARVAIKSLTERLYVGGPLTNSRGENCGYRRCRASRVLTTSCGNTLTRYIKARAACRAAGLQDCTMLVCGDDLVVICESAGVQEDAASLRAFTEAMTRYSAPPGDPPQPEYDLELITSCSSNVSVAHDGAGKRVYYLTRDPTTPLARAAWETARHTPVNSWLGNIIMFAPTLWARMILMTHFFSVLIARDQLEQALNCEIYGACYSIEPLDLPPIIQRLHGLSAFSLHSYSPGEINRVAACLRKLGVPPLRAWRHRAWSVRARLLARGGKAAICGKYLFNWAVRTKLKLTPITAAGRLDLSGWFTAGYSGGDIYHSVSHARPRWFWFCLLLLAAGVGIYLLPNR

On to `CC(C)OC(=O)[C@@H](C)NP(=O)(OC[C@@]1(F)O[C@@](C#N)(c2ccc3c(N)ncnn23)[C@H](O)[C@@H]1O)Oc1ccccc1` (stereo partly drawn) [Compound 5, Isopropyl ((((2S,3S,4R,5R)-5-(4-aminopyrrolo[2,1-f][1,2,4]triazin-7-yl)-5-cyano-2-fluoro-3,4-dihydroxytetrahydrofuran-2-yl)methoxy)(phenoxy)phosphoryl)-D-alaninate], for which the 50% effective concentration (EC50) (in general, the concentration at which the effect is half-maximal) amounted to 7370 nM in series [1] (Dengue virus, Huh7.5, 144 h); 2740 nM in the series on RSV replicon (setting [10]); 25300 nM in series [5]. This molecule came in with a CC50 in series [2] of over 100000 nM. In series [3], the CC50 at 5 days is over 100000 nM. For the same molecule, the CC50 at 7 days in [4] is over 100000 nM.

Consider `C[C@H](NP(=O)(OC[C@@]1(F)O[C@@](C#N)(c2ccc3c(N)ncnn23)[C@H](O)[C@@H]1O)Oc1ccccc1)C(=O)OCC(C)(C)C` (stereo partly drawn) [Compound 8, Neopentyl ((((2S,3S,4R,5R)-5-(4-aminopyrrolo[2,1-f][1,2,4]triazin-7-yl)-5-cyano-2-fluoro-3,4-dihydroxytetrahydrofuran-2-yl)methoxy)(phenoxy)phosphoryl)-L-alaninate], for which the concentration for a half-maximal effect (EC50) in series [1] (Dengue virus, Huh7.5, 144 h) is 110 nM; in series [1], 140 nM; with Ebola minigenome (setting [11]), 500 nM; in the series on Ebola minigenome (read-out: EBOV EC50, HEp-2 cells, Ebola minigenome, 48 hours), 800 nM; in the series with RSV replicon (setting [10]), 30 nM; with RSV replicon (read-out: RSV EC50, HeLa-derived RSV replicon cells, 7 days, luciferase) it was 26 nM. Also, the concentration giving a half-maximal response (EC50) in series [5] is 100 nM. In addition, the CC50 in the series “in vitro” was over 100000 nM. Besides, the CC50 at 5 days in [3] was over 50000 nM. Also, in series [6], the CC50 at 4 d turned out to be 64000 nM.

As to `CCC(CC)COC(=O)[C@@H](C)NP(=O)(OC[C@@]1(F)O[C@@](C#N)(c2ccc3c(N)ncnn23)[C@H](O)[C@@H]1O)Oc1ccccc1` (stereo partly drawn) [Compound 9, 2-Ethylbutyl ((((2S,3S,4R,5R)-5-(4-aminopyrrolo[2,1-f][1,2,4]triazin-7-yl)-5-cyano-2-fluoro-3,4-dihydroxytetrahydrofuran-2-yl)methoxy)(phenoxy)phosphoryl)-D-alaninate], the concentration for a half-maximal effect (EC50) in series [1] (Dengue virus, Huh7.5, 144 h) amounted to 70 nM; with Ebola minigenome (setting [11]), 250 nM; in the series with RSV replicon (setting [10]) it was 18 nM; in the series with Human rhinovirus 1B, 130 nM; in series [5] it was 25 nM. The CC50 is 12000 nM in series [2] and about 50000 nM in the series “in vitro”. In series [3], the CC50 at 5 days was 34000 nM. Also, in series [4], the CC50 at 7 days was 8100 nM. In addition, in series [6], the CC50 at 4 d came to 33000 nM.

Turning to `CCCOC(=O)[C@H](C)NP(=O)(N[C@@H](C)C(=O)OCCC)OC[C@@]1(F)O[C@@](C#N)(c2ccc3c(N)ncnn23)[C@H](O)[C@@H]1O` [Compound 10], the EC50 in the series on RSV replicon (setting [10]) was 170 nM; in the series on Human rhinovirus 1B it was 3100 nM; in series [5] it was 2300 nM. Moreover, in series [3], the CC50 at 5 days is over 50000 nM. For the same molecule, the CC50 at 7 days in series [4] is over 100000 nM. In series [6], this molecule yielded a CC50 at 4 d of over 100000 nM.

With `CC(C)OC(=O)[C@@H](C)NP(=O)(OC[C@@]1(N=[N+]=[N-])O[C@@](C#N)(c2ccc3c(N)ncnn23)[C@H](O)[C@@H]1O)Oc1ccccc1` (stereo partly drawn) [Compound 11, Isopropyl ((((2R,3S,4R,5R)-5-(4-aminopyrrolo[2,1-f][1,2,4]triazin-7-yl)-2-azido-5-cyano-3,4-dihydroxytetrahydrofuran-2-yl)methoxy)(phenoxy)phosphoryl)-D-alaninate], the EC50 in the series with RSV replicon (setting [10]) was 1300 nM; in the series on Human rhinovirus 1B, over 100000 nM; in series [5] it was over 50000 nM. For the same molecule, the CC50 at 5 days in series [3] was over 50000 nM. The molecule further came in with a CC50 at 7 days in series [4] of 13600 nM. In addition, the CC50 at 4 d in series [6] is 59000 nM.

In the case of `N#C[C@@]1(c2ccc3c(N)ncnn23)O[C@](F)(COP(=O)(O)OP(=O)(O)OP(=O)(O)O)[C@@H](O)[C@H]1O` [Compound 12, ((2S,3S,4R,5R)-5-(4-Aminopyrrolo[2,1-f][1,2,4]triazin-7-yl)-5-cyano-2-fluoro-3,4-dihydroxytetrahydrofuran-2-yl)methyl tetrahydrogen triphosphate], the 50% inhibitory concentration (IC50) (commonly the point on the concentration scale where inhibition reaches its midpoint) in series [7] is 130 nM; in series [8], 400 nM; in [9], 1100 nM.

For `N#C[C@@]1(c2ccc3c(N)ncnn23)O[C@](CF)(COP(=O)(O)OP(=O)(O)OP(=O)(O)O)[C@@H](O)[C@H]1O` [Compound 13, ((2R,3S,4R,5R)-5-(4-Aminopyrrolo[2,1-f][1,2,4]triazin-7-yl)-5-cyano-2-(fluoromethyl)-3,4-dihydroxytetrahydrofuran-2-yl)methyl tetrahydrogen triphosphate], the 50% inhibitory concentration (IC50) in [7] is 210 nM; in series [8], over 10000 nM; in series [9] it was over 10000 nM.

With `N#C[C@@]1(c2ccc3c(N)ncnn23)O[C@@](COP(=O)(O)OP(=O)(O)OP(=O)(O)O)(N=[N+]=[N-])[C@@H](O)[C@H]1O` [Compound 14, ((2R,3S,4R,5R)-5-(4-Aminopyrrolo[2,1-f][1,2,4]triazin-7-yl)-2-azido-5-cyano-3,4-dihydroxytetrahydrofuran-2-yl)methyl tetrahydrogen triphosphate], the results for the IC50 in [7], in series [8] and in [9] were 40 nM, 300 nM and 1100 nM, respectively.

Regarding `N#C[C@@]1(c2ccc3c(N)ncnn23)O[C@H](COP(=O)(O)OP(=O)(O)OP(=O)(O)O)[C@@H](O)[C@H]1O` [Compound C2, reference compound], the results for the IC50 in series [7], in series [8] and in series [9] were 270 nM, 1000 nM and 3600 nM, respectively.
